According to the supplement of paper PMC10307832:

How the values were obtained:
Assay in all cases: relative viability (nuclei count vs DMSO), 5 days (fraction); higher = more cells survive
[1] = compound: NC(=O)c1ccc(N(C(N)=O)c2c(F)cccc2F)nc1-c1ccc(F)cc1F [VX-702] + CC(C)C[C@H](NC(=O)[C@H](Cc1ccccc1)NC(=O)c1cnccn1)B(O)O [Bortezomib] (partner 0.002 µM)
In short: (§1)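 Medians of duplicate plates are given as relative viability. That measure is the nuclei count in treated wells divided by the count in vehicle wells. Counts were taken on 4× images of lung cancer cell lines in 1536-well plates, 5 days after pin-tool dosing the day after seeding with one drug alone or a fixed anchor-drug dose plus five library-drug doses (not always all listed) in √10 steps.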

[2] = compound: NC(=O)c1ccc(N(C(N)=O)c2c(F)cccc2F)nc1-c1ccc(F)cc1F [VX-702] + CC(=O)c1c(C)c2cnc(Nc3ccc(N4CCNCC4)cn3)nc2n(C2CCCC2)c1=O [Palbociclib] (partner 0.5 µM)
In short: as §1

[3] = compound: NC(=O)c1ccc(N(C(N)=O)c2c(F)cccc2F)nc1-c1ccc(F)cc1F [VX-702] + NC(=O)Nc1cc(-c2cccc(F)c2)sc1C(=O)N[C@H]1CCCNC1 [AZD7762] (partner 0.2 µM)
In short: as §1

[4] = compound: CC(C)(C)c1nc(-c2cccc(NS(=O)(=O)c3c(F)cccc3F)c2F)c(-c2ccnc(N)n2)s1 [Dabrafenib] + Cc1nc(NC(=O)N2CCC[C@H]2C(N)=O)sc1-c1ccnc(C(C)(C)C(F)(F)F)c1 [Alpelisib] (partner 2 µM)
In short: as §1

Cell Line	relative viability ([1]; first compound 0.02 µM)	relative viability ([1]; first compound 0.2 µM)	relative viability ([1]; first compound 0.6325 µM)	relative viability ([1]; first compound 2 µM)	relative viability ([2]; first compound 0.02 µM)	relative viability ([2]; first compound 0.2 µM)	relative viability ([2]; first compound 0.6325 µM)	relative viability ([2]; first compound 2 µM)	relative viability ([3]; first compound 0.02 µM)	relative viability ([3]; first compound 0.2 µM)	relative viability ([3]; first compound 0.6325 µM)	relative viability ([3]; first compound 2 µM)	relative viability ([4]; first compound 0.003 µM)	relative viability ([4]; first compound 0.009487 µM)	relative viability ([4]; first compound 0.03 µM)	relative viability ([4]; first compound 0.09487 µM)	relative viability ([4]; first compound 0.3 µM)
201T	1.13	1.07	1.17	1.17	0.349	0.345	0.347	0.336	0.585	0.561	0.509	0.449	1.06	1.08	0.932	1.01	1.05
A549													0.641	0.949	0.83	0.754	0.705
A-427	0.984	0.947	0.988	1.05	0.541	0.52	0.537	0.526	0.742	0.699	0.661	0.738		1.18	0.885	0.932	1.1
ABC-1	0.35		0.26	0.329	0.569	0.633	0.826	0.8	0.425		0.432	0.897		0.934	1.14	1.13	1.28
BEN	0.823	0.545	0.658	0.922	0.51	0.467	0.413	0.514	0.841	0.637	0.597	0.691		1.16		0.974	1.17
CAL-12T	1.02	0.928	0.885	1.06	0.427	0.507	0.496	0.347	0.517	0.644	0.58	0.625	1.38	1.33	1.27	1.14	1.45
COR-L23	1.08	1.02	1.15	1.21	0.271	0.312	0.323	0.341					0.715	0.784	0.713	0.678	0.85
COR-L 105	0.957	0.888	0.907	0.54	0.38	0.409	0.432	0.38					0.829	1.08	1.16	1.13	1.14
Calu-6	1.04	1.12	1.24	1.16									0.964	0.896	0.92	0.723	0.593
ChaGo-K-1	0.911	0.861	1.06	1.22	0.942	0.881	0.893	0.946	0.958	0.879	0.896	0.879					
EBC-1	0.622	0.545	0.587	0.603									0.71	0.649	0.563	0.264	0.24
EKVX	1.01	0.738	1.05	1.42	0.355	0.38	0.343	0.301	0.726	0.673	0.407	0.776	0.923	1.05	0.889	0.682	1.07
EMC-BAC-2	1.11	1.04	1.04	1.09	0.5	0.489	0.501	0.481	1.11	1.08	1.16	1.08	0.744	0.746	0.574	0.666	0.784
EPLC-272H	0.897	0.836	1.05	0.956	0.312	0.343	0.316	0.311	0.0171	0.202	0.234	0.211		1.1	0.843	0.962	0.864
H3255	0.716	0.772	1.02	0.917	0.304	0.317	0.318	0.315	0.987	0.901	0.994	0.996	0.647	0.813	0.684	0.669	0.664
HARA	0.605	1.05	1.17	1.34	0.278	0.227	0.226	0.254	0.313		0.306	0.331	0.669	0.89	0.646	0.732	1.09
HCC-15	1.07	0.929	1.09	1.05	0.732	0.639	0.724	0.491	1.31	1.18	1.32	1.19	0.831	0.971	0.909	0.912	0.893
HCC-44	0.909	0.856	0.845	0.992	1.01	1	0.955	0.98	1.05	1.03	1.06	1.04	0.751	0.792	0.789	0.732	0.807
HCC-78	0.314	0.521	0.472	0.506	0.493	0.486	0.513	0.487	0.541	0.589	0.774	0.798		0.445	0.346	0.305	0.332
HCC-366	1.01	0.969	1.12	0.634	0.409	0.412	0.389	0.333	0.381	0.218	0.372	0.123		0.435	0.145	0.374	0.59
HCC-827	0.966	1.03	0.997	0.541	0.452	0.462	0.446	0.316	0.2	0.226	0.215	0.137	0.895	0.967	0.778	0.793	0.963
HOP-62	0.67	0.566	0.696	0.653	0.487	0.479	0.451	0.551	0.95	0.409	1.08	0.465		1	0.734	0.902	0.771
IA-LM	0.787	0.796	0.872	0.919									0.613	0.607	0.72	0.242	0.0678
LC-2-ad	1.08	1.08	1.12	1.22	0.496	0.451	0.525	0.478	0.837	0.854	0.892	0.973	0.907	0.824	0.891	0.835	0.882

Cell Line	relative viability ([1]; first compound 0.02 µM)	relative viability ([1]; first compound 0.2 µM)	relative viability ([1]; first compound 0.6325 µM)	relative viability ([1]; first compound 2 µM)	relative viability ([2]; first compound 0.02 µM)	relative viability ([2]; first compound 0.2 µM)	relative viability ([2]; first compound 0.6325 µM)	relative viability ([2]; first compound 2 µM)	relative viability ([3]; first compound 0.02 µM)	relative viability ([3]; first compound 0.2 µM)	relative viability ([3]; first compound 0.6325 µM)	relative viability ([3]; first compound 2 µM)	relative viability ([4]; first compound 0.003 µM)	relative viability ([4]; first compound 0.009487 µM)	relative viability ([4]; first compound 0.03 µM)	relative viability ([4]; first compound 0.09487 µM)	relative viability ([4]; first compound 0.3 µM)
LCLC-97TM1	0.526	0.592	0.667	0.709	0.192	0.23	0.195	0.3	0.356	0.175	0.301	0.301		0.228	0.303		0.258
LK-2					0.533	0.618	0.567	0.614	0.312	0.234	0.343	0.292	1.05	1.14		1.35	1.13
NCI-H358					0.127	0.141	0.134	0.142	0.542	0.461	0.45	0.572		1.01	0.735	1.01	1.15
NCI-H520	0.4	0.663	0.479	0.677	0.229	0.275	0.191	0.231					0.934	0.881	0.708	0.881	0.914
NCI-H522					1.12	0.988	0.83	1.08	0.92	0.833	0.689	0.931					
NCI-H596	1.2	0.963	0.962	1.25					1.1	1.03	1.12	1.09	0.408	0.578	0.427	0.534	0.566
NCI-H661	0.731	0.731	1.11	1.21	0.413	0.409	0.409	0.408					0.259	0.707	0.382	0.432	0.687
NCI-H1299	1.09	1.03	1.12	1.09									1.14	0.982	1.03	0.87	0.757
NCI-H1395					0.565	0.531	0.654	0.623	0.419	0.427	0.411	0.408		0.914	0.894	0.944	0.878
NCI-H1563	0.812	0.891	0.918	0.616									0.944	0.971	0.853	0.777	1.06
NCI-H1648					0.268	0.294	0.244	0.319	0.709	0.583	0.634	0.563					
NCI-H1650	0.195	0.207	0.189	0.185	0.325	0.35	0.445	0.297									
NCI-H1703	0.286	0.37	0.255	0.289					0.123	0.117		0.115	0.356	0.309	0.291	0.379	0.362
NCI-H1793					0.294		0.314	0.269	0.663		0.542	0.379	0.676	0.675	0.615	0.73	0.64
NCI-H1944					0.303	0.326	0.337	0.32	0.565	0.491	0.557	0.358	0.785	0.877	0.745	0.84	0.838
NCI-H2009	1.29	1.15	1.22	1.3	0.247	0.25	0.257	0.246					1.1	1.08	1.05	0.886	0.934
NCI-H2023	0.862	0.946	1.06	0.947	0.381	0.347	0.404	0.436					0.668	0.614	0.635	0.614	0.801
NCI-H2170					0.355	0.374	0.42	0.369	1.05	0.834	1.08	0.941	0.91	0.848	0.713	0.733	0.95
NCI-H2228	1.02	0.917	1.31	1.04	0.604	0.763	0.676	1.07					0.585	0.858	0.813	0.807	0.896
NCI-H2342					0.511	0.606	0.512	0.539	0.607	0.644	0.6	0.552					
SK-LU-1	1.15		1.19	1.8	0.38	0.355	0.382	0.395					0.915	1	0.869	0.714	0.691
SK-MES-1					0.334	0.312	0.293	0.314					0.91	0.828	0.933	0.683	0.611
SW 1573	1.02	0.902	0.871	1	0.422	0.395	0.32	0.318					0.765	0.931	0.74	0.663	0.669
UMC-11	0.717	0.666	0.689	0.827	0.319	0.327	0.336	0.309					1.08	1.01	1	0.937	0.935
